# Patent US20250027954A1, “METHODS OF DETECTING AND TREATING CEREBRAL ANEURYSMS” (UNIVERSITY OF PITTSBURGH-OF THE COMMONWEALTH SYSTEM OF …, priority 2022, published 2025)
# Entries after “also recorded” stand apart in the source; their conditions may differ.
# What was measured:
# [1] = system: murine cerebral aneurysm model; experiment: Mouse intracranial aneurysm model: aneurysm formation; format: in vivo, mouse (C57BL/6); conditions: controls 57%, n=6 and 7
# Experimental: Mouse intracranial aneurysm model. Murine intracranial aneurysms were created in female 8-12 week-old C57BL/6 mice (Charles River Laboratories, Wilmington, MA) following established protocols. Briefly, the left common carotid artery and the right renal artery are ligated to induce hypertension. One week later, an Alzet micro-osmotic pump model 1004 (DURECT Corp, Cupertino, CA) was implanted subdermally to deliver Angiotensin II (Bachem AG, Switzerland) at 1000 ng/kg/min; and 10 μL of 0.8% porcine elastase (Worthington Biochemical Corp, Lakewood, NJ) in normal saline was injected into the right basal cistern using stereotactic coordinates: 1.2 mm rostral of bregma, 0.7 mm lateral of midline and 5.3 mm ventral of the dorsal aspect of the skull. The animals were fed a hypertensive diet with 8% NaCl and 0.12% BAPN (TEKLAD). PBS-treated animals received […] injection of phosphate buffered saline subcutaneously every two days. […] All animal experimentation was performed under the Institutional Animal Care and Use Committee-approved protocols of the University of Pittsburgh.
# [2] = system: cytokine expression in aneurysm-induced cerebral vasculature; experiment: Mouse cytokine arrays (96 cytokines) of aneurysm-induced cerebral vasculature; format: in vivo, mouse (C57BL/6); conditions: treated aneurysmal mice vs PBS-treated aneurysmal mice or sham surgery controls; n=3 each
# Experimental: Temporal analysis and comparison with pharmacologic treatment were performed.
# Mouse cytokine Arrays. Raybiotech cytokine arrays C1000 (AAM-CYT-1000, Raybiotech, Peachtree Corners, GA) were used to analyze 96 cytokines in aneurysm-induced cerebral vasculature at 2 and 3 weeks (n=3 each) and compared with reparixin-, clopidogrel-treated animals, and with sham surgery animals as controls (n=2).
SMILES,"aneurysm formation (mice that developed aneurysms) ([1]; 10 mg/kg reparixin, p=0.0163) [%]","effect on cytokine expression / inflammatory profile in aneurysmal mice (heatmap, FIG. 4A) [2]","aneurysm formation (mice that developed aneurysms) ([1]; 1 mg/kg clopidogrel, p<0.001) [%]"
CC(C)Cc1ccc([C@@H](C)C(=O)NS(C)(=O)=O)cc1 [reparixin],14,vastly attenuated inflammatory profile; also recorded: robust anti-inflammatory effects,
COC(=O)[C@H](c1ccccc1Cl)N1CCc2sccc2C1 [clopidogrel],,moderate response,0
